Patent US20100150948A1, “MATERIALS AND METHODS FOR IMPROVED IMMUNOGLYCOPROTEINS” (TRUBION PHARMACEUTICALS, INC., priority 2006, published 2010)

Tested on: CD37 and FcγRIIIa (CD16)
Test: Simultaneous binding of TRU-016 to CD37 and FcγRIIIa (CD16) on Daudi cells
Set-up: species or system human
Details: CS 0-800 μM in culture; response up to 400 μM, at which point the binding appears to level off
Procedure: TRU-016 produced as described in Example 8 was tested in the following assay, which simultaneously evaluates the ability of the TRU-016 binding domain to bind to a CD37 expressing target cell and the ability of the Fc portion of the TRU-016 SMIP to bind a fusion protein of human CD16 and murine IgG Fc.
The target cell utilized is the Daudi (ATCC CRL-213) cell line. Daudi cells are a human B-lymphoblastoid cell line derived from a Burkitt's lymphoma and express high levels of CD37. The custom soluble CD16:MuIgGFc fusion protein is human CD16 (low affinity polymorphism) linked to a murine IgG Fc.
The appropriate number of Daudi cells (350,000/well times the number of wells) is aliquoted and centrifuged at 250×g for 5 minutes at 15° C. The supernatant is removed. One percent cold paraformaldehyde is prepared by diluting the 4% stock from USB (USB US19943) 1:4 with FACS Buffer. FACS Buffer is prepared by adding 2% FBS (Gibco) to Dulbecco's PBS (Invitrogen) (v/v) and sterile filtering with a 0.22 μm filter. FACS Buffer is stored and used at 4° C. […]
Each sample's bound fluorescence is measured on a BD FACSCalibur flow cytometry system and analyzed with Cell Quest Pro software (Becton Dickinson, ver 5.2). The GeoMean fluorescence intensity for each sample is plotted relative to the TRU-016 concentration. […]

In the case of `O[C@H]1[C@H](O)[C@@H](O)CN2CC[C@H](O)[C@H]12` [castanospermine], the “simultaneous binding of TRU-016 to CD37 and CD16 (GeoMean fluorescence, D-parameter)” value was “dose-dependent binding response”.
